The values below come from patent US20140323457A1, “BETA-O/S/N FATTY ACID BASED COMPOUNDS AS ANTIBACTERIAL AND ANTIPROTOZOAL AGENTS” (LUDWIG-MAXIMILIANS-UNIVERSITÄT MÜNCHEN, priority 2011, published 2014).

Test [1] relates to S. aureus strain NCTC 8325. The test is described as follows: liquid culture-based hemolysis assay (secreted hemolysins, sheep red blood cells). It counts as cell-based. The method, then: The inhibition of hemolysin production has thus been further analysed in liquid bacterial cultures in order to evaluate their potential effects on bacterial growth simultaneously. Besides AVU1Acid, AVU1AAc, AVU1AA and VK273 the following further compounds were tested in liquid bacterial cultures:
(§1) 1 ml of an appropriate bacterial broth for the standard laboratory S. aureus strain NCTC 8325 were inoculated with 1*10^6 cfu. The cultures were kept overnight at 37° C. with gentle shaking 300 rpm in the presence of compounds AVU1Acid, AVU1AAc, AVU1AA or VK273 according to the present invention at different concentrations or dimethyl sulfoxide (DMSO) as control. Different beta-lactone virulence inhibitors were used as reference compounds. Following overnight incubation the optical density was measured in order to determine the minimal inhibiting concentration (MIC), which is defined as the lowest concentration of an antimicrobial that will inhibit the visible growth of a microorganism after overnight incubation. A 100 μl fraction of the supernatant of the grown bacterial cultures was subsequently analysed for the content of secreted bacterial hemolysins by addition of sheep red blood cells (10% v/v in PBS) and the measurement of the optical density at 410 nm after 30 min incubation at 37° C.
The following results were obtained in further liquid culture-based hemolysis assays. Since the assays were performed at different times with different charges of sheep red blood cells AVU1 has been tested as a reference substance in each assay. The resulting EC50 values determined for the tested compounds have to be assessed with respect to the EC50 value determined for AVU1.

The test system of test [2] is S. aureus strain NCTC 8325. The test is described as follows: minimal inhibiting concentration (MIC) in liquid bacterial culture. The following applies: overnight 37° C. It counts as cell-based. The method, then:
as §1

A further test concerns S. aureus NCTC 8325. The test is described as follows: agar plate-based hemolysis assay on sheep blood agar. To be noted: FIG. 1; over night at 37° C. Format: cell-based. The source says: Several compounds of the invention as well as reference compounds have been tested against S. aureus NCTC 8325 on sheep blood agar. Hemolysins are key virulence factors of S. aureus that contribute to the pathogenicity of these bacteria. The production of hemolysins can be easily monitored by lysis of sheep blood and generation of a clear zone around the bacterial colonies on the agar plate. Hemolysins are co-regulated with the majority of important virulence factors and have been qualified in previous studies as a reliable measure of agr quorum sensing regulated virulence (T. Böttcher, S. A. Sieber, J Am Chem Soc 2008, 130, 14400).
Agar plate-based hemolysis was tested on 5% sheep blood agar plates (Heipha Diagnostika, Eppelheim, Germany). Sterile circles of Whatman® cards (No. 1, Schleicher & Schuell) with 5.5 mm diameter were placed on the agar plates and inoculated with 2.5 μL of the corresponding lactone/DMSO and 2.5 μL stationary phase culture of S. aureus NCTC 8325 diluted to OD600=0.13. The plates were incubated over night at 37° C. and the diameters of the zones around the bacterial colonies were precisely measured using a vernier caliper. Doses of the compounds required to produce the half maximum effect (ED50) were calculated from curve fittings by Microcal™ Origin 6.0.

The target in test [3] is T1, CIpP protease from S. aureus NCTC8325 (SaCIpP) (Staphylococcus aureus, UniProt Q2G036).
T1 construct: made in house; host or cells: E. coli
T1 sequence (Q2G036 1-195): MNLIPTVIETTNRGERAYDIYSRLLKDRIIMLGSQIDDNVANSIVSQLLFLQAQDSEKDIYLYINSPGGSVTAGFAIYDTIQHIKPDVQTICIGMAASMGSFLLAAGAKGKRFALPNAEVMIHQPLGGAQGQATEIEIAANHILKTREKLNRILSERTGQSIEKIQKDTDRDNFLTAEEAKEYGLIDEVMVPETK
Description: in vitro inhibition of recombinant S. aureus CIpP with SLY-AMC substrate. Format: biochemical. To be noted: inhibitor 2 mM (1000×), 30 min RT; SLY-AMC 200 μM; FIG. 3. The method, then:
The CIpP protease from S. aureus NCTC8325 (SaCIpP) was recombinantly overexpressed in E. coli and purified in order to investigate enzyme inhibition using SLY-AMC (N-succinyl-Leu-Tyr-7-amido-4-methylcoumarin) as fluorogenic model substrate.
Precisely, 9 μl of SaCIpP in buffered solution (final concentration 0.05 mg/ml, 2 μM; buffer: 100 mM NaCl, 20 mM Tris, pH 7.0) were incubated in the presence of 1 μl of various inhibitors (final concentration 2 mM=1000×) for 30 min at room temperature (RT). Subsequently, SLY-AMC was added to a final concentration of 200 μM and the increase in fluorescence due to enzymatic substrate proteolysis was measured using a TECAN GENios Pro™ plate reader at 380/440 nm (excitation/emission) at time intervals of 60 s over 40 min at 37° C. The enzymatic activity was determined as the slope of fluorescence (2=440 nm) over time. As positive controls, the in vivo active beta-lactone compound AVU1 (“U1”; WO 2009/106211) and the in vitro potent CIpP beta-lactone inhibitor D3 (WO 2009/106211) were employed.

[4] abbreviates: Assay 4, hemolysin production, assess relative to AVU1.
The mark [5] stands for this setting: Staphylococcus aureus, NCTC8325, Erythrocyte, Assay 3, hemolysin production, assess relative to AVU1.
Where [6] appears, read: Staphylococcus aureus, NCTC8325, Assay 3, read-out: MIC.
[7] abbreviates: Staphylococcus aureus, NCTC8325, Erythrocyte, Assay 1, hemolysin production.
The mark [8] stands for this setting: Staphylococcus aureus, NCTC8325, Assay 1, read-out: MIC.
[9] abbreviates: Assay 2, hemolysin production, assess relative to AVU1.

One may read the EC50 as the concentration at which the effect is half-maximal. As a reminder, the MIC is the least concentration at which growth counts as inhibited.

In brackets after ≈: the same amount, converted by molar mass. Read-outs that look alike come from different tables or passages of the source.

As to `C#CCCCCCCC[C@@H](C(=O)O)[C@H](O)CCc1ccc(C2(C(F)(F)F)N=N2)cc1` (relative stereo) [JS-11_2, (3R*,2R*)-3-Hydroxy-2-(8-noninyl)-5-(4-(3-trifluoromethyl-3H-diazirinyl)-phenyl)-pentanoic acid], in test [1] (setting [4]), the EC50 was 2.2 µM. The compound further displayed an MIC in test [2] (Assay 4) of 10 to 50 µM.
For `NC(=O)[C@H](CCc1ccccc1)[C@H](O)CCc1ccccc1` (relative stereo) [VK403-1, (2R*,3R*)-3-Hydroxy-2-(2-phenylethyl)-5-phenylpentanamide], the EC50 in test [1] (setting [5]) lay within 50 to 100 µM. Moreover, the MIC in test [2] (Assay 3, read-out: MIC) was >1000 µM; in test [2] (setting [6]), > 1000 µM.
On to `C=CCCCCCCCC(C(=O)O)C(CCc1ccccc1)OC(C)=O` (stereo not shown) [AVU1AAc, 3-acetoxy-2-(non-8-enyl)-5-phenylpentanoic acid], for which the response in test [1] (setting [7]) was half-maximal at 2.43 µM (EC50). Further, the “inhibition of hemolysis (virulence inhibition) on sheep blood agar” value (“inhibition of hemolysis” below) in the test on S. aureus NCTC 8325 is “high”. Besides, in test [3], the “inhibition of SaCIpP” value is reported as “inhibit SaCIpP at an at least comparable level as the in vivo active beta-lactone reference compound AVU1”. Moreover, the MIC in test [2] (setting [8]) lay in the range of 50 to 100 µM (≈ 18 to 36 µg/mL).
Turning to `C=CCCCCCCCC(C(=O)SCC(NC(C)=O)C(=O)OC)C(CCc1ccccc1)OC(C)=O` (stereo not shown) [AVU1AAcTE, reference compound], the “inhibition of hemolysis” value in the test with S. aureus NCTC 8325 is “only low efficiency and incomplete inhibition of hemolysis”.
In test [1] (setting [9]), `C#CCCCCCCCC(C(=O)O)C(O)CCc1ccc(C(=O)c2ccccc2)cc1` (stereo not shown) [JS-64, 5-(4-Benzoylphenyl)-3-hydroxy-2-(8-noninyl)-pentanoic acid] had an EC50 of 1 to 5 µM. In addition, the minimal inhibitory concentration (MIC) in test [2] (Assay 2, read-out: MIC) is >1000 µM.
As to `C#CCCCCCCC[C@@H](C(N)=O)[C@H](O)CCc1ccc(C2(C(F)(F)F)N=N2)cc1` (relative stereo) [JS-14_2Amid, (3R*,2R*)-3-Hydroxy-2-(8-noninyl)-5-(4-(3-trifluoromethyl-3H-diazirinyl)-phenyl)-pentanamide], the midpoint of the response in test [1] (setting [4]), the EC50, lay at 2.8 µM. In test [2] (Assay 4, read-out: MIC), the MIC was >1000 µM.
For `C#CCCCCCCC[C@@H](C(=O)OC)[C@H](O)CCc1ccc(C2(C(F)(F)F)N=N2)cc1` (relative stereo) [JS-14_2, Methyl (3R*,2R*)-3-Hydroxy-2-(8-noninyl)-5-(4-(3-trifluoromethyl-3H-diazirinyl)-phenyl)-pentanoate] the same measures were 64 µM and >1000 µM.
`C#CCCCCCCC[C@H](C(N)=O)[C@H](O)CCc1ccc(C2(C(F)(F)F)N=N2)cc1` (relative stereo) [JS-14_1Amid, (3R*,2S*)-3-Hydroxy-2-(8-noninyl)-5-(4-(3-trifluoromethyl-3H-diazirinyl)-phenyl)-pentanamide]: in test [1] (setting [4]), a half-maximal effect (EC50) was put at 2.3 µM. The minimum inhibitory concentration (MIC) in test [2] (Assay 4, read-out: MIC) is listed as >1000 µM.
In test [1] (Staphylococcus aureus, NCTC8325, Erythrocyte, Assay 2, hemolysin production, assess relative to AVU1), `CCCCCCCCC[C@@H](C(N)=O)[C@H](O)CCc1ccccc1` (relative stereo) [VK453-1, (2R*,3R*)-3-Hydroxy-2-nonyl-5-phenylpentanamide] yielded a 50% effective concentration (EC50) of 1 to 5 µM. Also, the MIC in test [2] (Assay 2, read-out: MIC) was >1000 µM; in test [2] (Staphylococcus aureus, NCTC8325, Assay 2, read-out: MIC), > 1000 µM.
For `C#CCCCCCCC[C@H](C(=O)O)[C@H](O)CCc1ccc(C2(C(F)(F)F)N=N2)cc1` (relative stereo) [JS-11_1, (3R*,2S*)-3-Hydroxy-2-(8-noninyl)-5-(4-(3-trifluoromethyl-3H-diazirinyl)-phenyl)-pentanoic acid], in test [1] (setting [4]), the EC50 amounted to 3.6 µM. Besides, in test [2] (Assay 4), the minimum inhibitory concentration (MIC) was in the range of 10 to 50 µM.
In the case of `C=CCCCCCCCC(C(=O)O)C(O)CCc1ccccc1` (stereo not shown) [AVU1Acid, 3-hydroxy-2-(non-8-enyl)-5-phenylpentanoic acid], in test [1] (setting [7]), the EC50 is 1.18 µM. Further, in the test with S. aureus NCTC 8325, the “inhibition of hemolysis” value was “potent virulence inhibitors”. Also, the MIC in test [2] (setting [8]) was 50 to 100 µM (≈ 15.9 to 31.8 µg/mL).
In the case of `C=CCCCCCCCC1OC(=O)C1CCc1ccccc1` (stereo not shown) [AVU4, reference compound], a half-maximal response in test [1] (setting [7]) (EC50) required 435 µM. The MIC in test [2] (setting [8]) was > 1000 µM.
For `C#CCCCCCCCC(C(N)=O)C(O)CCc1ccc(C(=O)c2ccccc2)cc1` (stereo not shown) [JS-65, 5-(4-Benzoylphenyl)-3-hydroxy-2-(8-noninyl)-pentanamide], the EC50 in test [1] (setting [9]) is 1 to 5 µM. In addition, in test [2] (Assay 2, read-out: MIC), the minimal inhibitory concentration (MIC) is listed as >1000 µM.
For `C#CCCCCCCC[C@H](C(=O)OC)[C@H](O)CCc1ccc(C2(C(F)(F)F)N=N2)cc1` (relative stereo) [JS-14_1, Methyl (3R*,2S*)-3-Hydroxy-2-(8-noninyl)-5-(4-(3-trifluoromethyl-3H-diazirinyl)-phenyl)-pentanoate], a half-maximal response in test [1] (setting [4]) (EC50) required 166 µM. In addition, in test [2] (Assay 4, read-out: MIC), the minimal inhibitory concentration (MIC) was >1000 µM.
Consider `C=CCCCCCCC[C@@H](C(N)=O)[C@H](O)Cc1ccccc1` (relative stereo) [VK508-3, (2R*,3R*)-3-Hydroxy-2-(non-8-enyl)-4-phenylbutanamide], for which, in test [1] (setting [5]), the half-maximal effective concentration (EC50) lay within 10 to 50 µM. Also, the MIC in test [2] (Assay 3, read-out: MIC) is >1000 µM; in test [2] (setting [6]), > 1000 µM.
`C=CCCCCCCC[C@@H](C(N)=O)[C@H](O)CCCc1ccccc1` (relative stereo) [VK375, (2R*,3R*)-3-Hydroxy-2-(non-8-enyl)-6-phenylhexanamide] displayed an EC50 in test [1] (setting [5]) of 1 to 5 µM. The minimal inhibitory concentration (MIC) in test [2] (Assay 3, read-out: MIC) was >1000 µM; in test [2] (setting [6]), > 1000 µM.
In test [1] (setting [7]), `C=CCCCCCCC[C@H]1C(=O)O[C@@H]1CCc1cc(F)cc(F)c1` [AVU5, reference compound] had a concentration for a half-maximal effect (EC50) of 16.1 µM. The minimal inhibitory concentration (MIC) in test [2] (setting [8]) is > 1000 µM.
For the compound `C=CCCCCCCC[C@H]1C(=O)O[C@@H]1CCCc1ccccc1` [AVU7, reference compound], in test [1] (setting [7]), the half-maximal effective concentration (EC50) is 22 µM. Further, in test [2] (setting [8]), the MIC is > 1000 µM.
On the same counts, the results for `C=CCCCCCCC[C@H]1C(=O)O[C@@H]1Cc1ccccc1` [AVU6, reference compound] are 440 µM and > 1000 µM.
For the compound `C=CCCCCCCCC(C(=O)OC)C(O)CCc1ccccc1` (stereo not shown) [AVU1AME], in the test on S. aureus NCTC 8325, the “inhibition of hemolysis” value is reported as “moderate”. The “inhibition of SaCIpP” value in test [3] is reported as “inhibit SaCIpP at an at least comparable level as the in vivo active beta-lactone reference compound AVU1”.
